Source: patent US20250186408A1, “TREATMENT OF PHARMACORESISTANT EPILEPSY” (Katholieke Universiteit Leuven, priority 2021, published 2025)

Test system: EKP-induced epileptiform discharges in zebrafish larvae
Assay: Zebrafish EKP seizure model, electrophysiology (non-invasive LFP recordings, PSD analysis)
Format: in vivo, zebrafish (Danio rerio)
Conditions: 7 dpf larvae; for efficacy against EKP-induced epileptiform discharges 2 μM / efficacy against EKP-induced epileptiform discharges 10 μM: 22 h incubation, mean, normalized PSD 20-90 Hz; for effect on EKP-induced elevated PSD (in words): 22 h
Description: Non-invasive LFP recordings were measured from the midbrain (optic tectum) of 7 dpf zebrafish larvae pre-incubated with VHC only, EKP only, or compound and EKP. […] These steps occurred at 28° C., while further manipulation and electrophysiological recordings occurred at room temperature (±21° C.) and were performed as described before (16, 27). Each recording lasted 600 seconds.
A power spectral density (PSD) analysis of the recordings was performed using MatLab R2019 software (MATrix LABoratory, USA) as described in (26). The PSD estimate of each LFP recording was summed over each 10 Hz frequency band, ranging from 0 to 160 Hz. Next, the PSD estimates were normalized against the VHC control. Data are expressed as mean±SEM PSD per larva and per condition over the 20-90 Hz region. Outliers were identified via the ROUT test (Q=1%).
PSD analysis assumes that the epileptiform activity manifests as a high-power oscillation at certain frequencies (26). Thus, if epileptic activity occurs often during the recording an elevated PSD estimate should be found at the corresponding frequency band(s) (26).

SMILES	efficacy against EKP-induced epileptiform discharges 2 μM (2 μM)	further results
CCSC(=CC(=O)c1ccccc1)c1ccc(C(C)(C)C)cc1 (mixture of isomers) [Compound 5.1, (E/Z)-3-(4-(tert-butyl)phenyl)-3-(ethylthio)-1-phenylprop-2-en-1-one]	36%	
COc1ccccc1C(O)C#Cc1ccc(C(C)(C)C)cc1 (racemic) [Compound 3.1, rac-3-(4-(tert-butyl)phenyl)-1-(2-methoxyphenyl)prop-2-yn-1-ol]	79%	
CC(C)(C)c1ccc(C#CC(O)c2ccccc2O)cc1 (racemic) [Compound 3.2, rac-2-(3-(4-(tert-butyl)phenyl)-1-hydroxyprop-2-yn-1-yl)phenol]	26%	efficacy against EKP-induced epileptiform discharges 10 μM (10 μM): 57%
Nc1ncccc1C(O)C#Cc1cccc(Cl)c1 (racemic) [Compound 3.4, rac-1-(2-aminopyridin-3-yl)-3-(3-chlorophenyl)prop-2-yn-1-ol]	7%	efficacy against EKP-induced epileptiform discharges 10 μM (10 μM): 7%
Nc1ncccc1C(=O)C#Cc1ccccc1 [Compound 1.1, 1-(2-aminopyridin-3-yl)-3-phenylprop-2-yn-1-one]	65%	
Nc1ncccc1C(=O)C#Cc1ccc(F)cc1 [Compound 1.2, 1-(2-aminopyridin-3-yl)-3-(4-fluorophenyl)prop-2-yn-1-one]	80%	
CC(C)[Si](C#CC(=O)c1cccnc1N)(C(C)C)C(C)C [Compound 1.3, 1-(2-aminopyridin-3-yl)-3-(triisopropylsilyl)prop-2-yn-1-one]	67%	efficacy against EKP-induced epileptiform discharges 10 μM (10 μM): −23%
Nc1ncccc1C(=O)C#CC1CCCCC1 [Compound 1.4, 1-(2-aminopyridin-3-yl)-3-cyclohexylprop-2-yn-1-one]	69%	
CCCCCC#CC(=O)c1cccnc1N [Compound 1.5, 1-(2-aminopyridin-3-yl)oct-2-yn-1-one]	91%	
CC(C)C#CC(=O)c1cccnc1N [Compound 1.6, 1-(2-aminopyridin-3-yl)-4-methylpent-2-yn-1-one]	1%	
Nc1ncccc1C(=O)C#Cc1ccc(Cl)cc1 [Compound 1.7, 1-(2-aminopyridin-3-yl)-3-(4-chlorophenyl)prop-2-yn-1-one]	70%	
COC(=O)c1ccc(C#CC(=O)c2cccnc2N)cc1 [Compound 1.8, methyl 4-(3-(2-aminopyridin-3-yl)-3-oxoprop-1-yn-1-yl)benzoate]	18%	
COc1ccc(C#CC(=O)c2cccnc2N)cc1 [Compound 1.9, 1-(2-aminopyridin-3-yl)-3-(4-methoxyphenyl)prop-2-yn-1-one]	35%	
Nc1ncccc1C(=O)C#Cc1cccc(Cl)c1 [Compound 1.10, 1-(2-aminopyridin-3-yl)-3-(3-chlorophenyl)prop-2-yn-1-one]	−42%	
Nc1ncccc1C(=O)C#Cc1ccc(C(F)(F)F)cc1 [Compound 1.11, 1-(2-aminopyridin-3-yl)-3-(4-(trifluoromethyl)phenyl)prop-2-yn-1-one]	47%	
Cc1ccc(C#CC(=O)c2cccnc2N)cc1 [Compound 1.12, 1-(2-aminopyridin-3-yl)-3-(p-tolyl)prop-2-yn-1-one]	86%	
CC(C)(C)c1ccc(C#CC(=O)c2ccccc2N)cc1 [Compound 1.14, 1-(2-aminophenyl)-3-(4-(tert-butyl)phenyl)prop-2-yn-1-one]	60%	
CC(C)(C)c1ccc(C#CC(=O)c2cccnc2)cc1 [Compound 1.15, 3-(4-(tert-butyl)phenyl)-1-(pyridin-3-yl)prop-2-yn-1-one]	−49%	
CC(C)(C)c1ccc(C#CC(=O)c2ccccc2)cc1 [Compound 1.16, 3-(4-(tert-butyl)phenyl)-1-phenylprop-2-yn-1-one]	38%	
Nc1ncccc1C(=O)C#Cc1cccc(C(F)(F)F)c1 [Compound 1.17, 1-(2-aminopyridin-3-yl)-3-(3-(trifluoromethyl)phenyl)prop-2-yn-1-one]	61%	
COc1ccccc1C(=O)C#Cc1ccc(C(C)(C)C)cc1 [Compound 1.18, 3-(4-(tert-butyl)phenyl)-1-(2-methoxyphenyl)prop-2-yn-1-one]	71%	

SMILES	efficacy against EKP-induced epileptiform discharges 2 μM (2 μM)	further results
CC(C)(C)c1ccc(C#CC(=O)c2ccccc2O)cc1 [Compound 1.19, 3-(4-(tert-butyl)phenyl)-1-(2-hydroxyphenyl)prop-2-yn-1-one]	−23%	
CC(C)(C)c1ccc(C#CC(=O)c2ncccc2N)cc1 [Compound 1.24, 1-(3-aminopyridin-2-yl)-3-(4-(tert-butyl)phenyl)prop-2-yn-1-one]	45%	efficacy against EKP-induced epileptiform discharges 10 μM (10 μM): 11%
O=C(C#Cc1cccc(Cl)c1)c1cccnc1 [Compound 1.25, 3-(3-chlorophenyl)-1-(pyridin-3-yl)prop-2-yn-1-one]	−43%	
O=C(C#Cc1cccc(Cl)c1)c1ncc[nH]1 [Compound 1.26, 3-(3-chlorophenyl)-1-(1H-imidazol-2-yl)prop-2-yn-1-one]	51%	
CN(C)c1ncccc1C(=O)C#Cc1cccc(Cl)c1 [Compound 1.27, 3-(3-chlorophenyl)-1-(2-(dimethylamino)pyridin-3-yl)prop-2-yn-1-one]	−52%	
O=C(C#Cc1ccccc1)c1ccccc1 [Compound 1.28, 1,3-diphenylprop-2-yn-1-one]	25%	
COc1ccc(C#CC(=O)c2ccccc2)cc1 [Compound 1.29, 3-(4-methoxyphenyl)-1-phenylprop-2-yn-1-one]	26%	
Cc1ccc(C#CC(=O)c2ccccc2)cc1 [Compound 1.30, 1-phenyl-3-(p-tolyl)prop-2-yn-1-one]	28%	
COc1cccc(C#CC(=O)c2ccccc2)c1 [Compound 1.32, 3-(3-methoxyphenyl)-1-phenylprop-2-yn-1-one]	29%	
Cc1cccc(C#CC(=O)c2ccccc2)c1 [Compound 1.33, 1-phenyl-3-(m-tolyl)prop-2-yn-1-one]	50%	
O=C(C#Cc1cccc(Cl)c1)c1ccccc1 [Compound 1.34, 3-(3-chlorophenyl)-1-phenylprop-2-yn-1-one]	21%	
COc1ccccc1C#CC(=O)c1ccccc1 [Compound 1.36, 3-(2-methoxyphenyl)-1-phenylprop-2-yn-1-one]	52%	
Cc1ccccc1C#CC(=O)c1ccccc1 [Compound 1.37, 1-phenyl-3-(o-tolyl)prop-2-yn-1-one]	28%	
O=C(C#Cc1ccccc1Cl)c1ccccc1 [Compound 1.38, 3-(2-chlorophenyl)-1-phenylprop-2-yn-1-one]	−63%	
CC(C)(C)c1ccc(C#CC(=O)c2cccc(F)c2)cc1 [Compound 1.39, 3-(4-(tert-butyl)phenyl)-1-(3-fluorophenyl)prop-2-yn-1-one]	−61%	
Nc1ccccc1C(=O)C#Cc1cccc(Cl)c1 [Compound 1.40, 1-(2-aminophenyl)-3-(3-chlorophenyl)prop-2-yn-1-one]	82%	
CC(C)(C)c1ccc(C#CC=O)cc1 [Compound 2.1, 3-(4-(tert-butyl)phenyl)propiolaldehyde]	30%	
Nc1ncccc1C(=O)/C=C/c1cccc(Cl)c1 [Compound 5.2, (E)-1-(2-aminopyridin-3-yl)-3-(3-chlorophenyl)prop-2-en-1-one]	55%	
CC(C)(C)c1ccc(C2=CC(c3ccccc3)=CS(C)(=O)=C2)cc1 (stereo not shown) [Compound 9.1, 3-(4-(tert-butyl)phenyl)-1-methyl-5-phenyl-1λ^6-thiopyran 1-oxide]	51%	
Cn1nc(C#Cc2cccc(Cl)c2)c2cccnc21 [Compound 10.2, 3-((3-chlorophenyl)ethynyl)-1-methyl-1H-pyrazolo[3,4-b]pyridine]	19%	effect on EKP-induced elevated PSD (in words) (2 μM): did not; effect on EKP-induced elevated PSD (in words) (10 μM): significant decrease; efficacy against EKP-induced epileptiform discharges 10 μM (10 μM): 76%
Clc1cccc(C#Cc2n[nH]c3ccccc23)c1 [Compound 11.1, 3-((3-chlorophenyl)ethynyl)-1H-indazole]	60%	
